# Measured values taken from patent US20090068290A1, “BIFEPRUNOX DOSES FOR TREATING SCHIZOPHRENIA” (priority 2006, published 2009).
# Tests used:
# [1] = tested on: patients with chronic schizophrenia; test: Time to deterioration, Clinical Study Four (6-month, placebo-controlled); format: in vivo, human; conditions: for proportion of patients who deteriorated / time to deterioration of schizophrenia versus PBO (in words): 6 months; for proportion of patients who deteriorated / estimated hazard ratio relative to PBO, time to deterioration (Cox proportional hazards model) / Hazard Ratio (Cox), time to deterioration / % Deteriorated / No. of Pts Deteriorated: FAS; for time to deterioration of schizophrenia versus PBO (in words): BX 20 and 30 mg/day
# Procedure: (§1) METHODOLOGY: This study was a multinational, multicenter, randomized, double-blind, parallel-group, placebo-controlled, fixed-dose study. The study consisted of a 3- to 6-day antipsychotic-free run-in period, after which patients were randomised to 6 months of double-blind treatment with fixed doses of bifeprunox (20 mg/day (BX20) or 30 mg/day (BX30)) or placebo (PBO). Patients allocated to the BX groups were up-titrated from 0.25 mg/day over 7 days (BX20) or 8 days (BX30), and then continued on these doses for the remainder of the study. […] At predetermined time points, blood samples were obtained for drug concentration analysis of BX and its major metabolites (3′- and 4′-sulfate conjugates of BX), and pharmaco-economic assessments were performed.
# Investigational Product, Dose and Mode of Administration, Batch Number: Bifeprunox—up-titration over 7 (20 mg) or 8 days (30 mg) to 20 or 30 mg once daily; encapsulated tablets, orally.
# Reference Thera Dose and Mode of Administration: Placebo—encapsulated tablets, orally.
# [2] = tested on: patients with chronic schizophrenia; test: PANSS total score, Clinical Study Four; format: in vivo, human; conditions: FAS, ANCOVA; for Adjusted Mean Change from Baseline in PANSS Total Score, Difference to PBO Mean: Week 6 (day 42)
# Procedure: as §1
smiles,measurement,setting,value
"O=c1[nH]c2cccc(N3CCN(Cc4cccc(-c5ccccc5)c4)CC3)c2o1 [Bifeprunox, 7-[4-([1,1′-biphenyl]-3-ylmethyl)-1-piperazinyl]-2(3H)-benzoxazolone]",proportion of patients who deteriorated,[1]; BX20 (20 mg/day),41%
same,"estimated hazard ratio relative to PBO, time to deterioration (Cox proportional hazards model)",[1]; BX20 (20 mg/day),0.66
same,"Hazard Ratio (Cox), time to deterioration",[1]; BX20 (bifeprunox 20 mg) relative to PBO,0.656
same,% Deteriorated,[1]; BX20 (bifeprunox 20 mg),40.5%
same,No. of Pts Deteriorated,"[1]; BX20 (bifeprunox 20 mg), N 158",64
same,time to deterioration of schizophrenia versus PBO (in words),[1],prevented deterioration of schizophrenia statistically significantly better than placebo
same,time to deterioration of schizophrenia versus PBO (in words),[1]; listed as BX,statistically significantly longer time to deterioration
same,proportion of patients who deteriorated,[1]; BX30 (30 mg/day),38%
same,"estimated hazard ratio relative to PBO, time to deterioration (Cox proportional hazards model)",[1]; BX30 (30 mg/day),0.65
same,"Hazard Ratio (Cox), time to deterioration",[1]; BX30 (bifeprunox 30 mg) relative to PBO,0.653
same,% Deteriorated,[1]; BX30 (bifeprunox 30 mg),38.4%
same,No. of Pts Deteriorated,"[1]; BX30 (bifeprunox 30 mg), N 172",66
same,"Adjusted Mean Change from Baseline in PANSS Total Score, Difference to PBO Mean","[2]; BX20 (bifeprunox 20 mg/day), LOCF",−5.07
same,"Adjusted Mean Change from Baseline in PANSS Total Score, Difference to PBO Mean","[2]; BX30 (bifeprunox 30 mg/day), LOCF",−3.71
same,"Adjusted Mean Change from Baseline in PANSS Total Score, Least Squares Estimates Mean","[2]; Day 7, LOCF, listed as BX20",−1.89
same,"Change from Baseline in PANSS Total Score, Difference to PBO Mean","[2]; Day 7, LOCF, listed as BX20",−1.30
same,"Adjusted Mean Change from Baseline in PANSS Total Score, Least Squares Estimates Mean","[2]; Day 7, LOCF, listed as BX30",−0.73
same,"Change from Baseline in PANSS Total Score, Difference to PBO Mean","[2]; Day 7, LOCF, listed as BX30",−0.14
same,"Adjusted Mean Change from Baseline in PANSS Total Score, Least Squares Estimates Mean","[2]; Day 7, OC, listed as BX20",−1.89
same,"Change from Baseline in PANSS Total Score, Difference to PBO Mean","[2]; Day 7, OC, listed as BX20",−1.30
same,"Adjusted Mean Change from Baseline in PANSS Total Score, Least Squares Estimates Mean","[2]; Day 7, OC, listed as BX30",−0.73
same,"Change from Baseline in PANSS Total Score, Difference to PBO Mean","[2]; Day 7, OC, listed as BX30",−0.14
same,"Adjusted Mean Change from Baseline in PANSS Total Score, Least Squares Estimates Mean","[2]; Day 7, POCF, listed as BX20",−2.81
same,"Change from Baseline in PANSS Total Score, Difference to PBO Mean","[2]; Day 7, POCF, listed as BX20",−1.33
same,"Adjusted Mean Change from Baseline in PANSS Total Score, Least Squares Estimates Mean","[2]; Day 7, POCF, listed as BX30",−2.23
same,"Change from Baseline in PANSS Total Score, Difference to PBO Mean","[2]; Day 7, POCF, listed as BX30",−0.76
same,"Adjusted Mean Change from Baseline in PANSS Total Score, Least Squares Estimates Mean","[2]; Day 14, LOCF, listed as BX20",−3.03
same,"Change from Baseline in PANSS Total Score, Difference to PBO Mean","[2]; Day 14, LOCF, listed as BX20",−2.38
same,"Adjusted Mean Change from Baseline in PANSS Total Score, Least Squares Estimates Mean","[2]; Day 14, LOCF, listed as BX30",−1.45
same,"Change from Baseline in PANSS Total Score, Difference to PBO Mean","[2]; Day 14, LOCF, listed as BX30",−0.79
same,"Adjusted Mean Change from Baseline in PANSS Total Score, Least Squares Estimates Mean","[2]; Day 14, OC, listed as BX20",−4.77
same,"Change from Baseline in PANSS Total Score, Difference to PBO Mean","[2]; Day 14, OC, listed as BX20",−2.39
same,"Adjusted Mean Change from Baseline in PANSS Total Score, Least Squares Estimates Mean","[2]; Day 14, OC, listed as BX30",−4.43
same,"Change from Baseline in PANSS Total Score, Difference to PBO Mean","[2]; Day 14, OC, listed as BX30",−2.05
same,"Adjusted Mean Change from Baseline in PANSS Total Score, Least Squares Estimates Mean","[2]; Day 14, POCF, listed as BX20",−5.48
same,"Change from Baseline in PANSS Total Score, Difference to PBO Mean","[2]; Day 14, POCF, listed as BX20",−2.61
same,"Adjusted Mean Change from Baseline in PANSS Total Score, Least Squares Estimates Mean","[2]; Day 14, POCF, listed as BX30",−4.65
same,"Change from Baseline in PANSS Total Score, Difference to PBO Mean","[2]; Day 14, POCF, listed as BX30",−1.78
same,"Adjusted Mean Change from Baseline in PANSS Total Score, Least Squares Estimates Mean","[2]; Day 28, LOCF, listed as BX20",−.327
same,"Change from Baseline in PANSS Total Score, Difference to PBO Mean","[2]; Day 28, LOCF, listed as BX20",−3.34
same,"Adjusted Mean Change from Baseline in PANSS Total Score, Least Squares Estimates Mean","[2]; Day 28, LOCF, listed as BX30",−2.13
same,"Change from Baseline in PANSS Total Score, Difference to PBO Mean","[2]; Day 28, LOCF, listed as BX30",−2.20
same,"Adjusted Mean Change from Baseline in PANSS Total Score, Least Squares Estimates Mean","[2]; Day 28, OC, listed as BX20",−7.61
same,"Change from Baseline in PANSS Total Score, Difference to PBO Mean","[2]; Day 28, OC, listed as BX20",−4.09
same,"Adjusted Mean Change from Baseline in PANSS Total Score, Least Squares Estimates Mean","[2]; Day 28, OC, listed as BX30",−7.14
same,"Change from Baseline in PANSS Total Score, Difference to PBO Mean","[2]; Day 28, OC, listed as BX30",−3.63
same,"Adjusted Mean Change from Baseline in PANSS Total Score, Least Squares Estimates Mean","[2]; Day 28, POCF, listed as BX20",−7.74
same,"Change from Baseline in PANSS Total Score, Difference to PBO Mean","[2]; Day 28, POCF, listed as BX20",−3.63
same,"Adjusted Mean Change from Baseline in PANSS Total Score, Least Squares Estimates Mean","[2]; Day 28, POCF, listed as BX30",−6.85
same,"Change from Baseline in PANSS Total Score, Difference to PBO Mean","[2]; Day 28, POCF, listed as BX30",−2.74
same,"Adjusted Mean Change from Baseline in PANSS Total Score, Least Squares Estimates Mean","[2]; Day 42, LOCF, listed as BX20",−4.01
same,"Change from Baseline in PANSS Total Score, Difference to PBO Mean","[2]; Day 42, LOCF, listed as BX20",−5.07
same,"Adjusted Mean Change from Baseline in PANSS Total Score, Least Squares Estimates Mean","[2]; Day 42, LOCF, listed as BX30",−2.65
same,"Change from Baseline in PANSS Total Score, Difference to PBO Mean","[2]; Day 42, LOCF, listed as BX30",−3.71
same,"Adjusted Mean Change from Baseline in PANSS Total Score, Least Squares Estimates Mean","[2]; Day 42, OC, listed as BX20",−12.40
same,"Change from Baseline in PANSS Total Score, Difference to PBO Mean","[2]; Day 42, OC, listed as BX20",−6.14
same,"Adjusted Mean Change from Baseline in PANSS Total Score, Least Squares Estimates Mean","[2]; Day 42, OC, listed as BX30",−11.23
same,"Change from Baseline in PANSS Total Score, Difference to PBO Mean","[2]; Day 42, OC, listed as BX30",−4.97
same,"Adjusted Mean Change from Baseline in PANSS Total Score, Least Squares Estimates Mean","[2]; Day 42, POCF, listed as BX20",−9.40
same,"Change from Baseline in PANSS Total Score, Difference to PBO Mean","[2]; Day 42, POCF, listed as BX20",−4.32
same,"Adjusted Mean Change from Baseline in PANSS Total Score, Least Squares Estimates Mean","[2]; Day 42, POCF, listed as BX30",−8.12
same,"Change from Baseline in PANSS Total Score, Difference to PBO Mean","[2]; Day 42, POCF, listed as BX30",−3.05
same,"Adjusted Mean Change from Baseline in PANSS Total Score, Least Squares Estimates Mean","[2]; Day 63, LOCF, listed as BX20",−3.22
same,"Change from Baseline in PANSS Total Score, Difference to PBO Mean","[2]; Day 63, LOCF, listed as BX20",−5.47
same,"Adjusted Mean Change from Baseline in PANSS Total Score, Least Squares Estimates Mean","[2]; Day 63, LOCF, listed as BX30",−2.44
same,"Change from Baseline in PANSS Total Score, Difference to PBO Mean","[2]; Day 63, LOCF, listed as BX30",−4.68
same,"Adjusted Mean Change from Baseline in PANSS Total Score, Least Squares Estimates Mean","[2]; Day 63, OC, listed as BX20",−12.85
